Source: US20240190874A1, “SMALL MOLECULE DEGRADERS OF ANDROGEN RECEPTOR” (THE REGENTS OF THE UNIVERSITY OF MICHIGAN, priority 2021, published 2024)
pIC50: −log10 of the molar value.

Legend:
Assay type in all cases: cell-based
[1] = target: T1, AR (Homo sapiens, UniProt P10275); assay: Degradation of AR in VCaP cells; details: VCaP cells; for Dmax: VCaP
T1 construct: Degradation of AR; Cellular potency; host or cells: VCaP cells
T1 sequence (P10275 1-920): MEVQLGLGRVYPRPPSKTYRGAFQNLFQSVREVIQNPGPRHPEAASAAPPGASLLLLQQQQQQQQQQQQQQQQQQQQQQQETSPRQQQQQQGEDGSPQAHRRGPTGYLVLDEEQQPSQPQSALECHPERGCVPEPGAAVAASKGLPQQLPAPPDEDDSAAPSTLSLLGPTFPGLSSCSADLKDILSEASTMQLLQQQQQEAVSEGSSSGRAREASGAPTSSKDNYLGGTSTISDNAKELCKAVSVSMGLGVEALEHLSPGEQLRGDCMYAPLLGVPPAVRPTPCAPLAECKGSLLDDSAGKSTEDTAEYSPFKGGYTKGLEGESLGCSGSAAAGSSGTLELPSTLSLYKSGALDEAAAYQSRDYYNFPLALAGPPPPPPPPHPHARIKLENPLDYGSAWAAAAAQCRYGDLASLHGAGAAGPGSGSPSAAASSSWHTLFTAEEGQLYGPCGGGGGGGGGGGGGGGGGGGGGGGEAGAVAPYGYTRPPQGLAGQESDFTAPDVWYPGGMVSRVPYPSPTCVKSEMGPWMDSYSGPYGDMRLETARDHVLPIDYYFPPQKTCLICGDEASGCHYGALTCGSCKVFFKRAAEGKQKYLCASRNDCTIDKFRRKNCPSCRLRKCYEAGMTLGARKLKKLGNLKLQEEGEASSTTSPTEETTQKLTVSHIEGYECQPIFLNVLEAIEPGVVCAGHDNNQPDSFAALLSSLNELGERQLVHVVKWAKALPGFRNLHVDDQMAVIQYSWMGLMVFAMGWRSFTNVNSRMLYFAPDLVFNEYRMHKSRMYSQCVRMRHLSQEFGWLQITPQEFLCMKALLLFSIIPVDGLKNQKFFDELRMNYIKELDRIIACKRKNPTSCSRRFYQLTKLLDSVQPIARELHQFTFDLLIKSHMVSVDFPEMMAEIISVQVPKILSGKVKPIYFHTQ
Method: (§1) Biological Assays. LNCaP and VCaP cells used were purchased from American Type Culture Collection (ATCC). LNCaP were grown in RPMI 1640 (Invitrogen) and VCaP cells were grown in DMEM with Glutamax (Invitrogen). All of the cells were supplemented with 10% fetal bovine serum (Invitrogen) at 37° C. in a humidified 5% CO2 incubator.

[2] = test system: LNCaP cells; assay: Cellular potency (IC50) in LNCaP cells; details: Homo sapiens, LNCaP
Method: as §1

[3] = test system: VCaP cells; assay: Cellular potency (IC50) in VCaP cells; details: Homo sapiens, VCaP
Method: as §1

Compound	DC50 [1] [nM]	Dmax [1] [%]	pIC50 [2]	pIC50 [3]
C[C@H]1CC2(CCN(c3ccc(OC4CCN(C5CN(c6ccc7c(c6)C(=O)N(C6CCC(=O)NC6=O)C7=O)C5)CC4)nn3)CC2)CN1c1ccc(C#N)c(Cl)c1 (some centres unmarked) [compound 62]	< 1	> 90	> 8.00	> 8.00
C[C@H]1CC2(CCN(c3ccc(OC4CCN(C5CN(c6ccc7c(c6)C(=O)N(C6CCC(=O)NC6=O)C7=O)C5)CC4)nc3)CC2)CN1c1ccc(C#N)c(Cl)c1 (some centres unmarked) [compound 63]	< 1	> 90	> 8.00	> 8.00
C[C@H]1CC2(CCN(c3ccc(OC4CN(C5CN(c6ccc7c(c6)C(=O)N(C6CCC(=O)NC6=O)C7=O)C5)C4)cn3)CC2)CN1c1ccc(C#N)c(Cl)c1 (some centres unmarked) [compound 69]	< 1	> 90	> 8.00	> 8.00
C[C@H]1CC2(CCN(c3ccc(OC4CN(C5CCN(c6ccc7c(c6)C(=O)N(C6CCC(=O)NC6=O)C7=O)CC5)C4)cn3)CC2)CN1c1ccc(C#N)c(Cl)c1 (some centres unmarked) [compound 70]	< 100	50 to 70	> 6.00	> 6.00
C[C@H]1CC2(CCN(c3ccc(OC4CN(C5CN(c6ccc7c(c6)C(=O)N(C6CCC(=O)NC6=O)C7=O)C5)C4)nc3)CC2)CN1c1ccc(C#N)c(Cl)c1 (some centres unmarked) [compound 71]	< 100	50 to 70	> 6.00	> 6.00
C[C@H]1CC2(CCN(c3ccc(OC4CN(C5CCN(c6ccc7c(c6)C(=O)N(C6CCC(=O)NC6=O)C7=O)CC5)C4)nc3)CC2)CN1c1ccc(C#N)c(Cl)c1 (some centres unmarked) [compound 72]	< 100	50 to 70	> 6.00	> 6.00
C[C@H]1CC2(CCN(c3ccc(OC4CN(C5CN(c6ccc7c(c6)C(=O)N(C6CCC(=O)NC6=O)C7=O)C5)C4)nn3)CC2)CN1c1ccc(C#N)c(Cl)c1 (some centres unmarked) [compound 73]	< 100	50 to 70	> 6.00	> 6.00
C[C@H]1CC2(CCN(c3ccc(OC4CN(C5CCN(c6ccc7c(c6)C(=O)N(C6CCC(=O)NC6=O)C7=O)CC5)C4)nn3)CC2)CN1c1ccc(C#N)c(Cl)c1 (some centres unmarked) [compound 74]	< 100	50 to 70	> 6.00	> 6.00
C[C@H]1CC2(CCN(c3cnc(N4CCN(CC5CN(c6ccc7c(c6)C(=O)N(C6CCC(=O)NC6=O)C7=O)C5)CC4)nc3)CC2)CN1c1ccc(C#N)c(Cl)c1 (some centres unmarked) [compound 82]	< 1	> 90	> 8.00	> 8.00
C[C@H]1CC2(CCN(c3cnc(N4CCN(CC5CCN(c6ccc7c(c6)C(=O)N(C6CCC(=O)NC6=O)C7=O)CC5)CC4)nc3)CC2)CN1c1ccc(C#N)c(Cl)c1 (some centres unmarked) [compound 83]	< 1	> 90	> 8.00	> 8.00
C[C@H]1CC2(CCN(c3ccc(N4CCC(OC5CN(c6ccc7c(c6)C(=O)N(C6CCC(=O)NC6=O)C7=O)C5)CC4)cc3)CC2)CN1c1ccc(C#N)c(Cl)c1 (some centres unmarked) [compound 90]	< 1	> 90	> 8.00	> 8.00
C[C@H]1CC2(CCN(c3ccc(N4CCC(OC5CN(c6ccc7c(c6)C(=O)N(C6CCC(=O)NC6=O)C7=O)C5)CC4)nc3)CC2)CN1c1ccc(C#N)c(Cl)c1 (some centres unmarked) [compound 91]	< 1	> 90	> 8.00	> 8.00
C[C@H]1CC2(CCN(c3ccc(N4CCC(OC5CN(c6ccc7c(c6)C(=O)N(C6CCC(=O)NC6=O)C7=O)C5)CC4)cn3)CC2)CN1c1ccc(C#N)c(Cl)c1 (some centres unmarked) [compound 92]	< 1	> 90	> 8.00	> 8.00
C[C@H]1CC2(CCN(c3ccc(N4CCC(N(C)C5CN(c6ccc7c(c6)C(=O)N(C6CCC(=O)NC6=O)C7=O)C5)CC4)cc3)CC2)CN1c1ccc(C#N)c(Cl)c1 (stereo partly drawn) [compound 119, 2-chloro-4-((3S)-8-(4-(4-((1-(2-(2,6-dioxopiperidin-3-yl)-1,3-dioxoisoindolin-5-yl)azetidin-3-yl)(methyl)amino)piperidin-1-yl)phenyl)-3-methyl-2,8-diazaspiro[4.5]decan-2-yl)benzonitrile]	–	> 90	> 8.00	> 8.00
C[C@H]1CC2(CCN(c3ccc(N4CCC(NC5CN(c6ccc7c(c6)C(=O)N(C6CCC(=O)NC6=O)C7=O)C5)CC4)cc3)CC2)CN1c1ccc(C#N)c(Cl)c1 (some centres unmarked) [compound 120]	< 1	> 90	> 8.00	> 8.00
C[C@H]1CC2(CCN(c3ccc(N4CC(N(C)C5CN(c6ccc7c(c6)C(=O)N(C6CCC(=O)NC6=O)C7=O)C5)C4)cc3)CC2)CN1c1ccc(C#N)c(Cl)c1 (some centres unmarked) [compound 121]	< 100	70 to 90	> 7.00	> 7.00
C[C@H]1CC2(CCN(c3ccc(N4CCC(N(C)C5CN(c6ccc7c(c6)C(=O)N(C6CCC(=O)NC6=O)C7=O)C5)CC4)cn3)CC2)CN1c1ccc(C#N)c(Cl)c1 (some centres unmarked) [compound 123]	< 1	> 90	> 8.00	> 8.00
C[C@H]1CC2(CCN(c3ccc(N4CCC(N(C)C5CN(c6ccc7c(c6)C(=O)N(C6CCC(=O)NC6=O)C7=O)C5)CC4)nc3)CC2)CN1c1ccc(C#N)c(Cl)c1 (some centres unmarked) [compound 124]	< 10	70 to 90	> 7.00	> 7.00
C[C@H]1CC2(CCN(c3ccc(N4CCC(N(C)C5CN(c6ccc7c(c6)C(=O)N(C6CCC(=O)NC6=O)C7=O)C5)CC4)nn3)CC2)CN1c1ccc(C#N)c(Cl)c1 (some centres unmarked) [compound 125]	< 10	> 90	> 8.00	> 8.00
C[C@H]1CC2(CCN(c3ccc(OC4CCN(C5CN(c6cc7c(cc6F)C(=O)N(C6CCC(=O)NC6=O)C7=O)C5)CC4)cc3)CC2)CN1c1ccc(C#N)c(Cl)c1 (some centres unmarked) [compound 131]	< 1	> 90	> 8.00	> 8.00
C[C@H]1CC2(CCN(c3ccc(OC4CCN(C5CN(c6cc7c(cc6F)C(=O)N(C6CCC(=O)NC6=O)C7=O)C5)CC4)cn3)CC2)CN1c1ccc(C#N)c(Cl)c1 (some centres unmarked) [compound 132]	< 1	> 90	> 8.00	> 8.00
C[C@H]1CC2(CCN(c3ccc(OC4CCN(C5CN(c6cc7c(cc6F)C(=O)N(C6CCC(=O)NC6=O)C7=O)C5)CC4)nc3)CC2)CN1c1ccc(C#N)c(Cl)c1 (some centres unmarked) [compound 133]	< 1	> 90	> 8.00	> 8.00
C[C@H]1CC2(CCN(c3ccc(OC4CCN(C5CN(c6cc7c(cc6F)C(=O)N(C6CCC(=O)NC6=O)C7=O)C5)CC4)nn3)CC2)CN1c1ccc(C#N)c(Cl)c1 (some centres unmarked) [compound 134]	< 1	> 90	> 8.00	> 8.00
C[C@H]1CC2(CCN(c3ccc(C(=O)N4CCN(C5CN(c6ccc7c(c6)C(=O)N(C6CCC(=O)NC6=O)C7=O)C5)CC4)s3)CC2)CN1c1ccc(C#N)c(Cl)c1 (some centres unmarked) [compound 135]	< 10	70 to 90	> 7.00	> 7.00
